Results from ChEMBL document CHEMBL1201862, “PubChem BioAssay data set” (2004).
Activity calls are given as the source filed them.

Columns and labels:
[1] = target: Voltage-gated inwardly rectifying potassium channel KCNH2 (Homo sapiens, UniProt Q12809); assay: concentration-dependent hERG rescue from blockers – cell-based, thallium flux, dose response (AID 2121); assay type: ADME
[2] = target: Photoreceptor-specific nuclear receptor (Homo sapiens, UniProt Q9Y5X4); assay: ligands suppressing NR2E3 nuclear receptor activity – biochemical, TR-FRET, dose response (AID 463256); assay type: functional
Photoreceptor-specific nuclear receptor, sequence (Q9Y5X4 whole entry): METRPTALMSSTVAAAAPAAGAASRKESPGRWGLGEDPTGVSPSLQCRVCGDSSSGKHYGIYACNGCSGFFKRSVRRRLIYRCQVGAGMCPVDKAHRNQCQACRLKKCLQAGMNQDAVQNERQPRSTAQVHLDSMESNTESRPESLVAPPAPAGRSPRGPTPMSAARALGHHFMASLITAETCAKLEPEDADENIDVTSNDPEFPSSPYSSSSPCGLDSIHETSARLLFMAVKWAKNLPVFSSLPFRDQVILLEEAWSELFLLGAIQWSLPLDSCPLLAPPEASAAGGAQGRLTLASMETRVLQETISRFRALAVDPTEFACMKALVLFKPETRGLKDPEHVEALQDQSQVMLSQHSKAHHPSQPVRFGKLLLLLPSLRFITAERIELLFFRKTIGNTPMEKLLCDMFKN

[3] = target: Peroxisome proliferator-activated receptor gamma/Nuclear receptor corepressor 2 (Homo sapiens, UniProt P37231+Q9Y618); assay: Counterscreen for NR2E3 inverse agonists: TR-FRET-based biochemical high throughput dose response assay to identify inverse agonists of the interaction between peroxisome proliferator-activated receptor gamma (PPARg) and nuclear receptor co-repressor 2 (NCOR2).; assay type: functional
[4] = target: Peroxisome proliferator-activated receptor gamma/Nuclear receptor coactivator 2 (Homo sapiens, UniProt P37231); assay: (§1) TR-FRET dose response biochemical High Throughput Screening assay for agonists of the steroid receptor coactivator 2 (SRC-2) recruitment by the peroxisome proliferator-activated receptor gamma (PPAR gamma): non-selective agonists. [Related pubchem assays: 1297, 1032 ]; assay type: functional
[5] = target: Peroxisome proliferator-activated receptor gamma/Nuclear receptor coactivator 1 (Homo sapiens, UniProt P37231); assay: as §1, with “1 (SRC-1)” for “2 (SRC-2)”, “assays (depositor defined):AID1300, AID1808, AID504735, AID631]” for “assays: 1297, 1032 ]”; assay type: protein assay
[6] = target: Peroxisome proliferator-activated receptor gamma/Nuclear receptor coactivator 3 (Homo sapiens, UniProt P37231); assay: as §1, with “3 (SRC-3)” for “2 (SRC-2)”, “1301 (Confirmation screen.), 1048 (Primary screen.)]” for “1297, 1032 ]”; assay type: functional
Peroxisome proliferator-activated receptor gamma/Nuclear receptor coactivator 3, sequence (P37231 whole entry): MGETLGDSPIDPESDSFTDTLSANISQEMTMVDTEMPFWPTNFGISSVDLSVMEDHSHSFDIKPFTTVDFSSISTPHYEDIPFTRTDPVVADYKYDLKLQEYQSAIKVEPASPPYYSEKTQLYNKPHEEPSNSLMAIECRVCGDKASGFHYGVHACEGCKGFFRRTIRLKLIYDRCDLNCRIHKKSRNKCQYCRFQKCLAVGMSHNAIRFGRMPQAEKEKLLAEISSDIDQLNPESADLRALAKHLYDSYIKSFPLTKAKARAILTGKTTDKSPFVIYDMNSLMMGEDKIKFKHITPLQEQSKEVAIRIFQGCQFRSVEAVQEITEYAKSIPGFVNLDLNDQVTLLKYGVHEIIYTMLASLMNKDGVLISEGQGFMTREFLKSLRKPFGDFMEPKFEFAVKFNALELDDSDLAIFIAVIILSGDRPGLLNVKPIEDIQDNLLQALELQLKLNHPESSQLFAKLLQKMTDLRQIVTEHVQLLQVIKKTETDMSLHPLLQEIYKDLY
Peroxisome proliferator-activated receptor gamma/Nuclear receptor coactivator 3, sequence (Q9Y6Q9 whole entry, further chain): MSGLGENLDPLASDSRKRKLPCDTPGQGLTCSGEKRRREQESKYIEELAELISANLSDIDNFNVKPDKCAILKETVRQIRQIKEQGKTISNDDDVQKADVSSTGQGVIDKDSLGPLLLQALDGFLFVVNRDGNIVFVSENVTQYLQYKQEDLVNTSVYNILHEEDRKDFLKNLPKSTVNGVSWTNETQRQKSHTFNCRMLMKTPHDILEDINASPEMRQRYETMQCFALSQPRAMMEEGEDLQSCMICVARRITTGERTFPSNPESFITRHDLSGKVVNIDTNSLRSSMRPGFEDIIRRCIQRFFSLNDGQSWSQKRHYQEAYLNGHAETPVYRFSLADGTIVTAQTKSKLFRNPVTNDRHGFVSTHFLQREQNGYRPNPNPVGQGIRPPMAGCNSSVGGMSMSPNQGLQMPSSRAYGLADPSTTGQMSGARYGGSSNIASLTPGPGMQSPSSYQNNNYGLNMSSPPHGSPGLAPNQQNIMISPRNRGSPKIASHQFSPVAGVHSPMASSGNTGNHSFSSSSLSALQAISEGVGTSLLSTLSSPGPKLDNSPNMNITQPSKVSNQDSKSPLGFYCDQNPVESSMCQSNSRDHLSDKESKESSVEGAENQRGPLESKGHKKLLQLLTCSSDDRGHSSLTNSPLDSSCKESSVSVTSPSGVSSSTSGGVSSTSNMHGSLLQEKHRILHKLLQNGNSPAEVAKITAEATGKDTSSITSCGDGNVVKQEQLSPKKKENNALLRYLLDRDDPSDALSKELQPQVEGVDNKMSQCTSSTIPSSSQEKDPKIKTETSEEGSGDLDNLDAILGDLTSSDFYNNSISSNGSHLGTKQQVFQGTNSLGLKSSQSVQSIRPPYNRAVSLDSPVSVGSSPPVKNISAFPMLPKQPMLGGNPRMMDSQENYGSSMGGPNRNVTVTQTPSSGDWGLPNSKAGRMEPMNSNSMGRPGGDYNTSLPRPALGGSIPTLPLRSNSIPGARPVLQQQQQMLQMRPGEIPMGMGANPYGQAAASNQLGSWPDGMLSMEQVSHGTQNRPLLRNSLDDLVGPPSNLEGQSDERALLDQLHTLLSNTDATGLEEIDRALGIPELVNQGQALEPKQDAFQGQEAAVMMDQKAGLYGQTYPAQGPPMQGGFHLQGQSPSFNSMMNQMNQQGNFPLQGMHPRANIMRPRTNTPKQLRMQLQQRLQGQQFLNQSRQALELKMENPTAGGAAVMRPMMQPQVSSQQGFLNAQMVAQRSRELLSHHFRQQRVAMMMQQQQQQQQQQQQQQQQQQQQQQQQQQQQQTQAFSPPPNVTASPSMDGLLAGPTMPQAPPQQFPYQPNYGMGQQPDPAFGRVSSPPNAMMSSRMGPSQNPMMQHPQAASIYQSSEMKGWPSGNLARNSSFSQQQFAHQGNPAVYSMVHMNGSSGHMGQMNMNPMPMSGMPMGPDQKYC

[7] = target: Sphingosine 1-phosphate receptor 2 (Homo sapiens, UniProt O95136); assay: Dose Response Cell Based Assay for Antagonists of the S1P2 Receptor. [Related pubchem assays: 856, 736 ]; assay type: functional
Sphingosine 1-phosphate receptor 2, sequence (O95136 whole entry): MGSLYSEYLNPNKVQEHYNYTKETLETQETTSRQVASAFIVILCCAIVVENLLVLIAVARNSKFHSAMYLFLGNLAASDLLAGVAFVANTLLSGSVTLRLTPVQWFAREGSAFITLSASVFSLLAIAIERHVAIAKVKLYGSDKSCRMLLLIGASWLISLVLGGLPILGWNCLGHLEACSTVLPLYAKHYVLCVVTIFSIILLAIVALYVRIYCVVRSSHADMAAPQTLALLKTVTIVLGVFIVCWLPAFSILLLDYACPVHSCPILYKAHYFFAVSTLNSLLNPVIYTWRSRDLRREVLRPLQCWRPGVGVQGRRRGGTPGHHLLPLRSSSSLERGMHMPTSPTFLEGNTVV

[8] = target: Ubiquitin carboxyl-terminal hydrolase BAP1 (Homo sapiens, UniProt Q92560); assay: inhibition of BAP1 ubiquitin hydrolase activity – biochemical, dose response (AID 714); assay type: functional
Ubiquitin carboxyl-terminal hydrolase BAP1, sequence (Q92560 whole entry): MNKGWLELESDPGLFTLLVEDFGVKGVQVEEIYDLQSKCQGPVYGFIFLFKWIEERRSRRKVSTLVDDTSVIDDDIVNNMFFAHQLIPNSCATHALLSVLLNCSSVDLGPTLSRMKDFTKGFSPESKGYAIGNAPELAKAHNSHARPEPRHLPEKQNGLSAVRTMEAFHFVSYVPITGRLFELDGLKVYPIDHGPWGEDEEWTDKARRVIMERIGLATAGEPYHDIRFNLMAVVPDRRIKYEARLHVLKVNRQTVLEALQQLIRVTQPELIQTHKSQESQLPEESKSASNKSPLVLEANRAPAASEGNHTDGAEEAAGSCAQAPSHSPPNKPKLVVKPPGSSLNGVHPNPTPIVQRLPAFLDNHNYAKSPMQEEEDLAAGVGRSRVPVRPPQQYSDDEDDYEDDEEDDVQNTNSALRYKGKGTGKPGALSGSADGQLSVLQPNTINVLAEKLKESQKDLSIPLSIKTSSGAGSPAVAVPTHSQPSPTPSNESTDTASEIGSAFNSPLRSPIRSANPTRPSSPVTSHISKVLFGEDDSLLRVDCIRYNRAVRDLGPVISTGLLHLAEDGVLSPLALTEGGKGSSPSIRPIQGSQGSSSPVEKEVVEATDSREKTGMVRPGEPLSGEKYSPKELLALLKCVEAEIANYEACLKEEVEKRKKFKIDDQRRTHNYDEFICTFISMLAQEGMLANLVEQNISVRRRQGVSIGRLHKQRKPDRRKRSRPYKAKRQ

[9] = target: T1, Aryl hydrocarbon receptor (Homo sapiens, UniProt P35869); assay: Luminescence-based cell-based high throughput dose response assay for activators of the Aryl Hydrocarbon Receptor (AHR). [Related pubchem assays: 2796 (Primary screen (AHR activators in singlicate)), 2845 (Confirmation screen (AHR activators in triplicate)), 434939 (Counterscreen (PXR activators in triplicate)), 2804 (Summary (AHR activators))]; assay type: ADME
T1 sequence (P35869 whole entry): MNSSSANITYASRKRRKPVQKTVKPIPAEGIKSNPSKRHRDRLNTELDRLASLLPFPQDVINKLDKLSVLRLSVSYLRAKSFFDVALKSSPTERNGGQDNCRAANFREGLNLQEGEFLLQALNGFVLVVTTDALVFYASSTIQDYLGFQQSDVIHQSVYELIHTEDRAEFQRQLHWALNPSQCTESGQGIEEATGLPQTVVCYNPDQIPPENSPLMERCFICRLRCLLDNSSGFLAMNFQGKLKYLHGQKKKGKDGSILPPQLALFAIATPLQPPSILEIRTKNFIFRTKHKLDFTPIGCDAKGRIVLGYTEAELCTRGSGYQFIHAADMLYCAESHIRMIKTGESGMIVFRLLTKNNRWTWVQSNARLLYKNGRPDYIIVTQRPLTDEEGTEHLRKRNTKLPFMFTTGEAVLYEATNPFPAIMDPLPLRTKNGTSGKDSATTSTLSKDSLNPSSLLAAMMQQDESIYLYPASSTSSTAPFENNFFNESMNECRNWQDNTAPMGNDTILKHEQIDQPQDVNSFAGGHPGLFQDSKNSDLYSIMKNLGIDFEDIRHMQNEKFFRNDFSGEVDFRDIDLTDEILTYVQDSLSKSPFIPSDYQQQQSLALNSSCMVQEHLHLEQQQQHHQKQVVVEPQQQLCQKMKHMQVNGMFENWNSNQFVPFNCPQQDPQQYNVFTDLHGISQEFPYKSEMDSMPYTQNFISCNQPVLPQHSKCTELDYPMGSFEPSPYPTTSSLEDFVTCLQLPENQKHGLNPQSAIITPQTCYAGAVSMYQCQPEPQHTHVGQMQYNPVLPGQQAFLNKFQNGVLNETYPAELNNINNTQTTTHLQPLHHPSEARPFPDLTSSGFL

[10] = target: E3 ubiquitin-protein ligase Mdm2 (Homo sapiens, UniProt Q00987); assay: MDM2-luc reporter signal enhancers, multi-concentration potency testing, MDM2 ubiquitin-protein ligase inhibitor program, whole-cell format, luminescence detection, 384-well microplate (AID 1394); assay type: functional;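 further: MDM2 E3 inhibitors raise luminescence so EC50 is for signal enhancement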
[11] = Luminescence Cell-Based Dose Retest to Confirm Inhibitors of Cancer Stem Cells. [Related pubchem assays (depositor defined):AID2717, AID2721]; assay type: functional; conditions: Homo sapiens
[12] = target: RNA-editing ligase 1, mitochondrial (Trypanosoma brucei brucei, UniProt P86926); assay: inhibition of trypanosome RNA editing ligase – biochemical, fluorescence, Trypanosoma brucei, dose response (AID 1117295); assay type: functional
RNA-editing ligase 1, mitochondrial, sequence (P86926 whole entry): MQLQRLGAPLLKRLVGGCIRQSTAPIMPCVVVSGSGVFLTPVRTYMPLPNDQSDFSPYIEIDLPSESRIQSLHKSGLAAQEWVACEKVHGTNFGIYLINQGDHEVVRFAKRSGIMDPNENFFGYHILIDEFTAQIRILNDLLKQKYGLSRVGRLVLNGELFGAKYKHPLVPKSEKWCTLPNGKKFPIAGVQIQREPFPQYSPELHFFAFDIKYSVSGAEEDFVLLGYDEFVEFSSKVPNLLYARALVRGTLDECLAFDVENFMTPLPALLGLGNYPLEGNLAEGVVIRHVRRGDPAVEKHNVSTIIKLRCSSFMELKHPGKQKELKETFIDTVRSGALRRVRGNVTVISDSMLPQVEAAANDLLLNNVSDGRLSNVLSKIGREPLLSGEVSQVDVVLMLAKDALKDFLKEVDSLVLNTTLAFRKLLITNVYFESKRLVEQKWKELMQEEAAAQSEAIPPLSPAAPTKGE

[13] = inhibitors acting on PAX2 in cells – cell-based, plate reader, dry powder samples, selectivity assay for PAX8 inhibitor project, dose response (AID 743048); assay type: functional;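 further: HEK293 cells carrying a WT1 promoter luciferase reporter driven by expressed Pax2; potency is for inhibition of Pax2 driven reporter signal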
[14] = OV-90 cell viability loss – plate reader, dry powder, SA8, PAX8 inhibitor project, dose response (AID 743149); assay type: functional, cell-based
[15] = PAX5 cellular inhibition readout – cell-based, plate reader, dry powder samples, selectivity assay for PAX8 inhibitor project, dose response (AID 743047); assay type: functional;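 further: HEK293 cells carrying a Pax5 driven CD19 promoter luciferase reporter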
[16] = PAX8-dependent cell viability loss – plate reader, dry powder, dose response (AID 743049); assay type: functional, cell-based
[17] = IGROV1 cell killing – plate reader, dry powder samples, PAX8 inhibitor project, dose response (AID 743043); assay type: functional, cell-based; conditions: IGROV-1
[18] = COV434 cell viability loss – plate reader, dry powder, SA7, cytotoxicity control for PAX8 inhibitor project, dose response (AID 743145); assay type: functional, cell-based
Paired box protein Pax-8 = Paired box protein Pax-8 (Homo sapiens, UniProt Q06710); assay: PAX8 transcriptional activity inhibition in RMG-I – RMG-I cells, luciferase, cherry-pick, dose response (AID 687027); assay type: functional, cell-based;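 further: luciferase reporter driven by Pax8 target thyroperoxidase promoter measured by SteadyGlo luminescence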
Paired box protein Pax-8, sequence (Q06710 whole entry): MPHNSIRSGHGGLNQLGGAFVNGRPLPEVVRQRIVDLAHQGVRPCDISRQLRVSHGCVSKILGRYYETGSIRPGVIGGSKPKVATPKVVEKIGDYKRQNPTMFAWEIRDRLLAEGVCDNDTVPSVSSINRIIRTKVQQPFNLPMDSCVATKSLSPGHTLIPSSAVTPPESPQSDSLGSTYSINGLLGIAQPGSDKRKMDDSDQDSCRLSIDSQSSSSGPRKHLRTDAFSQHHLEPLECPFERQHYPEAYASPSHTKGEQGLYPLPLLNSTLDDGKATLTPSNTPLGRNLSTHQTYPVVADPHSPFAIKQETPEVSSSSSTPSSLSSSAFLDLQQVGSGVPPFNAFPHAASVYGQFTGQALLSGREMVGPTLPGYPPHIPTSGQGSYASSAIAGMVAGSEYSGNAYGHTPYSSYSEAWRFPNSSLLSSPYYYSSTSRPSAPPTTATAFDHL

cells = assay type: functional, cell-based; conditions: INS-1E
[19] = IC50 of insulin release inhibition, rat insulinoma INS-1E line, 5 mM glucose, cell-based (AID 1117331); assay type: functional
[20] = Late stage results for the probe development effort to identify inhibitors of Plasmodium falciparum gametocytes: Luminescence-based cell-based high throughput dose response assay to identify inhibitors of viability of late stage Plasmodium falciparum gametocytes.; assay type: functional
[21] = viability loss in HepG2 liver cells – cell-based, luminescence, dry powder, set 9, cytotoxicity control, dose response (AID 743358); assay type: functional
[22] = cytotoxicity toward Colo320 cells – cell-based, CellTiter-Glo luminescence, IC50, dose response (AID 1117334); assay type: functional; conditions: COLO 320
[23] = loss of viability in HepG2 cells – cell-based, CellTiter-Glo, cherry-picked, cytotoxicity control for Shn3 inhibitor project, dose response (AID 624134); assay type: functional
[24] = cytotoxicity toward HCT116 cells – cell-based, CellTiter-Glo luminescence, IC50, dose response (AID 1117332); assay type: functional; conditions: HCT-116
[25] = non-specific 3'UTR reporter inhibition in Clone20-Shn3RL – cell-based, Renilla luciferase, cherry-picked, counter-screen for Shn3 inhibitor project, dose response (AID 624133); assay type: functional
[26] = Reduced DLD-1 viability, concentration-response, CellTiter-Glo luminescence (AID 1117352); assay type: functional
[27] = rise of 4N DNA cells, HeLa – IC50, dose response (AID 1117351); assay type: functional, cell-based
[28] = rise of 2N DNA cells, HeLa – IC50, dose response (AID 1117349); assay type: functional, cell-based
[29] = reduction of Shn3 3'UTR-driven luciferase in osteoblasts – cell-based, Clone20 osteoblasts, firefly luciferase, cherry-picked, dose response (AID 624132); assay type: functional;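 further: firefly luciferase luminescence from reporter carrying the Shn3 3'UTR in osteoblasts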
[30] = HCT116 cell viability decrease, GSK3B pretreatment – CellTiter-Glo, IC50, dose response (AID 1117339); assay type: functional; conditions: HCT-116
[31] = target: Glucose-6-phosphate 1-dehydrogenase (Homo sapiens, UniProt P11413); assay: inhibition of Homo sapiens G6PD, dose series – biochemical, fluorescence, selectivity assay for P. falciparum G6PD inhibitor project, dose response (AID 504792); assay type: functional
Glucose-6-phosphate 1-dehydrogenase, sequence (P11413 whole entry): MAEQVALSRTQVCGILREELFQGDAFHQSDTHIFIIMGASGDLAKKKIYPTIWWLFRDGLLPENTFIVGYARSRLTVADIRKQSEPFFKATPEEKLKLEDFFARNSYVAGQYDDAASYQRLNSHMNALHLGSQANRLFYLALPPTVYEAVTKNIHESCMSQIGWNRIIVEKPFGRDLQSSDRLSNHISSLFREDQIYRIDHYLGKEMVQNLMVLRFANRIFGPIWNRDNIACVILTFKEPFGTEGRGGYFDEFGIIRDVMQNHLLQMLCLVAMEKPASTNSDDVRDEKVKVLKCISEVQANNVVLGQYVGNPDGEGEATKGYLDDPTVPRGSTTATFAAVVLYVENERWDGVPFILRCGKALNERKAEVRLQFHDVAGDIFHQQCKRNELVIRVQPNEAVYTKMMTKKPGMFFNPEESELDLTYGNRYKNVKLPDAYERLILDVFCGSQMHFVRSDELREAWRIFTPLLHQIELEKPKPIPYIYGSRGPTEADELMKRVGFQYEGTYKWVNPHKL

With `COc1ccc(C(=O)CC(=O)C(=O)Nc2ccccc2OC)cc1` the EC50 [1] was 8.33 µM (active).
For `Cc1cc2nc(-c3ccc(SCC(=O)Nc4ccc(S(=O)(=O)N5CCCC5)cc4)nc3)[nH]c2cc1C`, the IC50 [2] was > 39.8 µM (not active), the IC50 [3] was 2.07 µM (active) and the EC50 [4] was 11.1 µM (not active). For the same compound, the EC50 [5] was 11.6 µM (inactive) and the EC50 [6] was > 79.4 µM (not active).
In the case of `O=C(O)c1sc2cc(C(F)(F)F)cnc2c1-c1cccs1`, the IC50 [7] is reported as > 30 µM (not active).
In the case of `CSc1nc2c(cnn2-c2ccc(C)c(C)c2)c(=O)[nH]1`, the IC50 [8] is reported as > 50 µM (not active).
In the case of `O=C(Nc1cccc(Cl)c1)c1cccnn1`, the EC50 [9] is reported as 0.583 µM (active).
For `N#Cc1c(N)nc2c(c1-c1cccc(O)c1)CCCCCC2`, the EC50 [10] was 13.8 µM (not active) and the AC50 [11] was 5.01 µM (active).
In the case of `COc1cccc(C(=O)NCCS(=O)(=O)NC(C)CCc2ccccc2)c1` (stereo not drawn), the IC50 [12] is reported as > 96.6 µM (inactive).
For `C[C@H](CO)N1C[C@H](C)[C@@H](CN(C)Cc2ccc(C(F)(F)F)cc2)OCCCC[C@H](C)Oc2ccc(NS(=O)(=O)c3ccc(F)cc3)cc2C1=O`, the AC50 [13] was 18.8 µM (active), the AC50 [14] was 68.3 µM (active) and the AC50 [15] was 24.3 µM (active). For the same compound, the AC50 [16] was 37.7 µM (active), the AC50 [17] was 40.5 µM (active) and the AC50 [18] was 55.1 µM (active). The AC50 (Paired box protein Pax-8) was 6.28 µM (active).
In the case of `C#CCOC(C(=O)OCCN(C)C)(c1ccccc1)c1ccccc1`, the IC50 (cells) is reported as 9.67 µM (inactive) and the IC50 [19] is reported as 9.26 µM (inactive).
With `O=C(NC1=NCCS1)c1cn(-c2ccccc2)nc1-c1cccnc1` the IC50 [20] was > 74.4 µM (inactive).
For `CN1c2ccc(-c3cccc(F)c3)cc2[C@H]2[C@H](CCN2C(=O)Nc2ccccc2F)[C@H]1CO`, the AC50 [21] was > 47 µM (inactive).
With `O=C(Nc1ccc([N+](=O)[O-])cc1Cl)c1cc(Cl)ccc1O` [NICLOSAMIDE] the IC50 [22] was 0.00826 µM (active), the AC50 [23] was 1.62 µM (active) and the IC50 [24] was 0.00144 µM (active). The AC50 [25] was 0.837 µM (active), the IC50 [26] was 0.00349 µM (active) and the IC50 [27] was > 10 µM (inactive). For the same compound, the IC50 [28] was > 10 µM (inactive), the AC50 [29] was 3 µM (active) and the IC50 [30] was 0.00295 µM (active). The IC50 [31] was > 80 µM (inactive).
